Tests used:
Canis familiaris [1] = experiment: Antidyslipidemic activity in high-fat diet fed dog assessed as decrease in serum triglyceride level at 0.01 mg/kg, po administered QD for 1 week (reference value: 98 +/- 4 mg/dL); type: functional, Canis lupus familiaris
[2] = biological target: T1, Peroxisome proliferator-activated receptor gamma (Canis lupus familiaris, UniProt Q4U3Q4); experiment: Agonist activity at dog PPARgamma; type: functional
T1 sequence (Q4U3Q4 whole entry): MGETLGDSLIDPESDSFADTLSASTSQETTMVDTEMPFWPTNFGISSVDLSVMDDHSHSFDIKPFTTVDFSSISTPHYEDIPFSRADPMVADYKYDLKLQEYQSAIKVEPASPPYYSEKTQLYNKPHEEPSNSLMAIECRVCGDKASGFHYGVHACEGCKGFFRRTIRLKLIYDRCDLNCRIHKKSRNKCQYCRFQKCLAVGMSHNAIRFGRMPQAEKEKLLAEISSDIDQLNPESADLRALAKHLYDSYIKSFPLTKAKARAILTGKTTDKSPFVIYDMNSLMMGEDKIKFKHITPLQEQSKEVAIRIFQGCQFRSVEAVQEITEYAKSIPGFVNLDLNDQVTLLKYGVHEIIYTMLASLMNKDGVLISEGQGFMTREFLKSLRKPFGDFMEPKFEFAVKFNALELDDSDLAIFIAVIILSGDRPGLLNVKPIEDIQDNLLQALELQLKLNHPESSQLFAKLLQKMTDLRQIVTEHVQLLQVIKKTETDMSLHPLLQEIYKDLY

Canis familiaris [3] = experiment: Toxicity in high-fat diet fed dog assessed as change in body weight at 0.03 mg/kg, po administered QD for 1 week (reference value: 14.8 +/- 0.7 kg); type: organism-based, Canis lupus familiaris; parameters: dose 0.03 mg/kg, route oral; settings: in vivo, 168 h
Rattus norvegicus = experiment: Volume of distribution at steady state in rat at 1 mg/kg, po; type: ADME, organism-based; parameters: dose 1 mg/kg, route oral; settings: in vivo
[4] = Half life in dog at 0.3 mg/kg, po; type: ADME, organism-based, Canis lupus familiaris; parameters: dose 0.3 mg/kg, route oral; settings: in vivo
[5] = Agonist activity at rat PPARdelta; type: functional
Canis familiaris [6] = experiment: Antidyslipidemic activity in high-fat diet fed dog assessed as decrease in total cholesterol at 0.01 mg/kg, po administered QD for 1 week (reference value: 205 +/- 6 mg/dL); type: functional, Canis lupus familiaris
[7] = biological target: T2, Peroxisome proliferator-activated receptor gamma (Mus musculus, UniProt P37238); experiment: Agonist activity at mouse PPARgamma; type: functional
T2 sequence (P37238 whole entry): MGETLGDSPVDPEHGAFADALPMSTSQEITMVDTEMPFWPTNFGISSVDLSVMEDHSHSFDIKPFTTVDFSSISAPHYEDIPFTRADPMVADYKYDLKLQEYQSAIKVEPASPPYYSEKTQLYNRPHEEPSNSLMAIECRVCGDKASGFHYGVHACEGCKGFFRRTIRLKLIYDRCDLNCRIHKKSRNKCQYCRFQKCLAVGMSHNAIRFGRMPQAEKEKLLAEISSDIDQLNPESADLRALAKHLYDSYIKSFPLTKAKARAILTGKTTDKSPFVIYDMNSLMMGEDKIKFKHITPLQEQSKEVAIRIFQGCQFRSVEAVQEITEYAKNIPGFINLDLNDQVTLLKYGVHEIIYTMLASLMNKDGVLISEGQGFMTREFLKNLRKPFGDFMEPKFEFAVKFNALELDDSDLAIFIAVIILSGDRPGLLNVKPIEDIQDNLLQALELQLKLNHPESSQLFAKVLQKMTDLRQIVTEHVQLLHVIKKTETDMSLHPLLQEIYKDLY

Canis familiaris [8] = experiment: Antidyslipidemic activity in high-fat diet fed dog assessed as decrease in free fatty acid at 0.03 mg/kg, po administered QD for 1 week (reference value: 0.624 +/- 0.057 mEq/L); type: functional, Canis lupus familiaris
Canis familiaris [9] = experiment: Antidyslipidemic activity in high-fat diet fed dog assessed as decrease in non-HDL cholesterol at 0.01 mg/kg, po administered QD for 1 week (reference value: 75 +/- 5 mg/dL); type: functional, Canis lupus familiaris
[10] = Agonist activity at hamster PPARdelta; type: functional, Cricetinae
Canis familiaris [11] = experiment: Antidyslipidemic activity in high-fat diet fed dog assessed as decrease in free fatty acid at 0.01 mg/kg, po administered QD for 1 week (reference value: 0.624 +/- 0.057 mEq/L); type: functional, Canis lupus familiaris
Canis familiaris [12] = experiment: Antidyslipidemic activity in high-fat diet fed dog assessed as decrease in total cholesterol at 0.03 mg/kg, po administered QD for 1 week (reference value: 205 +/- 6 mg/dL); type: functional, Canis lupus familiaris
Canis familiaris [13] = experiment: Antidyslipidemic activity in high-fat diet fed dog assessed as decrease in non-HDL cholesterol at 0.003 mg/kg, po administered QD for 1 week (reference value: 75 +/- 5 mg/dL); type: functional, Canis lupus familiaris
[14] = biological target: T3, Peroxisome proliferator-activated receptor delta (Canis lupus familiaris, UniProt Q0ZAQ8); experiment: Agonist activity at dog PPARdelta; type: functional
T3 sequence (Q0ZAQ8 whole entry): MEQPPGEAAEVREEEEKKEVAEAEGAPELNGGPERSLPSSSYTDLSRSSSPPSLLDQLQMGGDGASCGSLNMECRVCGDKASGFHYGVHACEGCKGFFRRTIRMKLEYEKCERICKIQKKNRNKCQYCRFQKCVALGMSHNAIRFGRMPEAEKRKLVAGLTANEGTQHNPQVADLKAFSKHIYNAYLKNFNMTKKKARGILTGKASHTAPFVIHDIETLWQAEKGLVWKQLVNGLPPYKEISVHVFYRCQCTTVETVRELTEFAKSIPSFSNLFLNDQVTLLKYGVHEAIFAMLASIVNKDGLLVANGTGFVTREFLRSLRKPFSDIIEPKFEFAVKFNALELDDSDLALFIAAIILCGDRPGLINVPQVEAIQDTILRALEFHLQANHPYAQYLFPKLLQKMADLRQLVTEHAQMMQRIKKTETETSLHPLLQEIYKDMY

[15] = Half life in rat at 1 mg/kg, po; type: ADME, organism-based; parameters: dose 1 mg/kg, route oral; settings: in vivo
[16] = biological target: T4, Peroxisome proliferator-activated receptor alpha (Canis lupus familiaris, UniProt Q95N78); experiment: Agonist activity at dog PPARalpha; type: functional
T4 sequence (Q95N78 whole entry): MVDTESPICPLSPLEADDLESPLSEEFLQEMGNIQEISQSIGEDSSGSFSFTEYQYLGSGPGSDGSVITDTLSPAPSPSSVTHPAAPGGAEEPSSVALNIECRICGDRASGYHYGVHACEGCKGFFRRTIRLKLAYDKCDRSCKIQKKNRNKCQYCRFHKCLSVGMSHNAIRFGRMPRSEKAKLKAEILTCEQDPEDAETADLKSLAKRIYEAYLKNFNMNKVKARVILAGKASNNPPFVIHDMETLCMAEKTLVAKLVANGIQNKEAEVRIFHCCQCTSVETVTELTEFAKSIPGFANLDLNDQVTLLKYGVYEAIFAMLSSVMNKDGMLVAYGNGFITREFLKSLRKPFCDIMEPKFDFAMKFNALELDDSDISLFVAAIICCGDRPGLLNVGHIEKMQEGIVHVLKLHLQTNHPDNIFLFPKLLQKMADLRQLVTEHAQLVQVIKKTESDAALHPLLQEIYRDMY

Canis familiaris [17] = experiment: Toxicity in high-fat diet fed dog assessed as change in body weight at 0.01 mg/kg, po administered QD for 1 week (reference value: 14.8 +/- 0.7 kg); type: organism-based, Canis lupus familiaris; parameters: dose 0.01 mg/kg, route oral; settings: in vivo, 168 h

EC50 [2]: 11 µM
Vdss (Rattus norvegicus): 0.832 L/kg
half-life [4]: 74 h
EC50 [5]: > 14 µM
EC50 [7]: 12 µM
EC50 [10]: > 7.1 µM
EC50 [14]: 2.7 µM
half-life [15]: 10 h
EC50 [16]: 0.19 µM
SMILES: Cc1nc(-c2ccc(Cl)cc2)sc1C(=O)N[C@H]1CCCN(c2cccc(C(=O)O)c2)C1
Activity (Canis familiaris [1]): 48 mg/dL
Activity (Canis familiaris [3]): 14.8 kg
Activity (Canis familiaris [6]): 176 mg/dL
Activity (Canis familiaris [8]): 0.576 mEq/L
Activity (Canis familiaris [9]): 50 mg/dL
Activity (Canis familiaris [11]): 0.651 mEq/L
Activity (Canis familiaris [12]): 169 mg/dL
Activity (Canis familiaris [13]): 65 mg/dL
Activity (Canis familiaris [17]): 14.8 kg
